pEC50: −log10 of the molar value.
Target: T1, human FXR (Homo sapiens, UniProt Q96RI1)
T1 construct: expressed in transfected cells; host or cells: HEK293 cells stably carrying a 5xGal4-response-element firefly luciferase reporter, transiently transfected with pcDNA3.1-Gal4-FXR
T1 sequence (Q96RI1 262-486 limits assumed): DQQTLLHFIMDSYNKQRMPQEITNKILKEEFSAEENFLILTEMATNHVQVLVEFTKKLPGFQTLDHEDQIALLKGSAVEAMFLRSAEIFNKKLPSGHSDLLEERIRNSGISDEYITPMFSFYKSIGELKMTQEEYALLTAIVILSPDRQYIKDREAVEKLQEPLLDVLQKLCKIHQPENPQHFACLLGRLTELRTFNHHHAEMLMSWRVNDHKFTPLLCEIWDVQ
Experiment: transient human FXR/Gal4-luciferase reporter assay
Format: cell-based
Conditions: Gal4-hFXR transfected HEK293 reporter cells; relative to 8 μM GW-4064
Method: A Gal4-hFXR fusion construct reporter system was used as the primary assay to characterize compound activity. A construct including 5 copies of the Gal4 promoter response element upstream of a firefly luciferase reporter cDNA was stably expressed in HEK293 cells. This reporter cell line was maintained in Dulbecco's Modified Eagle's medium (DMEM; Gibco) supplemented with 1% penicillin-streptomycin (P/S) solution, 500 μg/mL Zeocin and 10% charcoal/dextran-treated fetal bovine serum (cs-FBS) at 37° C. in a humidified 5% CO2 atmosphere. Another plasmid was constructed in which the human cytomegalovirus promoter in the pcDNA3.1 vector directs the expression of the cDNA encoding a fusion protein comprised of the DNA binding domain from the Gal4 transcription factor fused to the ligand binding domain from human FXR.
The day prior to transfection, the reporter cells in culture are detached from the plate with trypsin and plated into a T75 flask at a sufficient density to achieve approximately 90% confluence the next morning. The transfection reagents are prepared by separately diluting 25 μg of the pcDNA3.1-Gal4-FXR plasmid into 1.87 mL of Opti-MEM (Thermo-Fisher), and 40 μL of Lipofectamine 2000 (Thermo-Fisher) into 1.87 mL of Opti-MEM, and then adding the diluted DNA solution into the diluted Lipofectamine 2000 solution and incubating at room temperature for 15-20 minutes. The mixture is further diluted with 10 mL of a solution comprised of DMEM, 10% cs-FBS, and 1% P/S immediately prior to transferring to the cells. The maintenance culture media is aspirated from the cells and the final transfection mixture is added before the cells are incubated overnight at 37° C. in a humidified 5% CO2 atmosphere. This protocol can be scaled up, and the transiently transfected cells can be cryopreserved in an assay-ready format.
For compound testing, 100 nL of the compounds (serial dilutions in DMSO) are dispensed with an Echo acoustic dispenser (Labcyte) into the wells of a Corning/Costar clear bottom 384-well white plate. The transfected cells are harvested, counted, and diluted such that 10-25,000 cells in 25 μL are plated into each well of the 384-well compound assay plate. The compound-treated cells are incubated overnight at 37° C. in a humidified 5% CO2 atmosphere.

| pEC50 | SMILES |
| --- | --- |
| 7.14 | COc1cc2nc(N3CCC4(C=C(c5c(-c6c(Cl)cncc6Cl)noc5C5CC5)C4)CC3)sc2cc1C(=O)O [Example 51, 2-(2-(5-Cyclopropyl-3-(3,5-dichloropyridin-4-yl)isoxazol-4-yl)-7-azaspiro[3.5]non-1-en-7-yl)-5-methoxybenzo[d]thiazole-6-carboxylic acid] |
| 6.56 | Cn1cc(C(=O)O)c2ccc(N3CCC4(CC3)CC(c3c(C(F)F)cnn3-c3ccccc3C(F)(F)F)C4)cc21 [Example 222, 6-(2-(4-(Difluoromethyl)-1-(2-(trifluoromethyl)phenyl)-1H-pyrazol-5-yl)-7-azaspiro[3. 5]nonan-7-yl)-1-methyl-1H-indole-3-carboxylic acid] |
| 6.63 | Cn1nc(C(=O)O)c2cc(N3CCC4(C=C(c5c(-c6ccccc6OC(F)(F)F)noc5C5CC5)C4)CC3)ccc21 [Example 174, 5-(2-(5-Cyclopropyl-3-(2-(trifluoromethoxy)phenyl)isoxazol-4-yl)-7-azaspiro[3.5]non-1-en-7-yl)-1-methyl-1H-indazole-3-carboxylic acid] |
| 5.81 | O=C(O)c1cc(C(F)(F)F)c2cc(N3CCC4(C=C(c5c(C(C6CC6)C6CC6)noc5C5CC5)C4)CC3)ccc2n1 [Example 212, 6-(2-(5-Cyclopropyl-3-(dicyclopropylmethyl)isoxazol-4-yl)-7-azaspiro[3.5]non-1-en-7-yl)-4-(trifluoromethyl)quinoline-2-carboxylic acid] |
| 6.85 | COc1cc(C(=O)O)nc2ccc(N3CCC4(C=C(c5c(-c6ccncc6Cl)noc5C5CC5)C4)CC3)cc12 [Example 109, 6-(2-(3-(3-Chloropyridin-4-yl)-5-cyclopropylisoxazol-4-yl)-7-azaspiro[3.5]non-1-en-7-yl)-4-methoxyquinoline-2-carboxylic acid] |
| 6.42 | Cc1cc(C(=O)O)cc2sc(N3CCC4(CC3)CC(c3c(C(F)F)cnn3-c3ccccc3C(F)(F)F)C4)nc12 [Example 220, 2-(2-(4-(Difluoromethyl)-1-(2-(trifluoromethyl)phenyl)-1H-pyrazol-5-yl)-7-azaspiro[3.5]nonan-7-yl)-4-methylbenzo[d]thiazole-6-carboxylic acid] |
| 6.50 | O=C(O)c1ccc(N2CCC3(C=C(c4c(-c5c(Cl)cccc5Cl)noc4C4CC4)C3)CC2)nn1 [Example 5, 6-(2-(5-Cyclopropyl-3-(2,6-dichlorophenyl)isoxazol-4-yl)-7-azaspiro[3.5]non-1-en-7-yl)pyridazine-3-carboxylic acid] |
| 7.06 | O=C(O)c1cc(F)c2nc(N3CCC4(C=C(c5c(C(F)F)cnn5-c5c(Cl)cncc5Cl)C4)CC3)sc2c1 [Example 216, 2-(2-(1-(3,5-Dichloropyridin-4-yl)-4-(difluoromethyl)-1H-pyrazol-5-yl)-7-azaspiro[3.5]non-1-en-7-yl)-4-fluorobenzo[d]thiazole-6-carboxylic acid] |
| 7.46 | CS(=O)(=O)NC(=O)c1cc(F)c2nc(N3CCC4(C=C(c5c(-c6c(Cl)cccc6Cl)noc5C5CC5)C4)CC3)sc2c1 [Example 180, 2-(2-(5-Cyclopropyl-3-(2,6-dichlorophenyl)isoxazol-4-yl)-7-azaspiro[3.5]non-1-en-7-yl)-4-fluoro-N-(methylsulfonyl)benzo[d]thiazole-6-carboxamide] |
| 6.29 | CC1(c2onc(-c3c(Cl)cncc3Cl)c2C2=CC3(CCN(c4ccc5nc(C(=O)O)cc(C(F)(F)F)c5c4)CC3)C2)CC1 [Example 94, 6-(2-(3-(3,5-Dichloropyridin-4-yl)-5-(1-methylcyclopropyl)isoxazol-4-yl)-7-azaspiro[3.5]non-1-en-7-yl)-4-(trifluoromethyl)quinoline-2-carboxylic acid] |
| 6.34 | O=C(O)c1cnc(N2CCC3(C=C(c4c(-c5c(Cl)cccc5Cl)noc4C4CC4)C3)CC2)c(F)c1 [Example 28, 6-(2-(5-Cyclopropyl-3-(2,6-dichlorophenyl)isoxazol-4-yl)-7-azaspiro[3.5]non-1-en-7-yl)-5-fluoronicotinic acid] |
| 6.74 | Cc1cc(C(=O)O)cc2sc(N3CCC4(C=C(c5c(C(F)F)cnn5-c5ccccc5OC(F)(F)F)C4)CC3)nc12 [Example 221, 2-(2-(4-(Difluoromethyl)-1-(2-(trifluoromethoxy)phenyl)-1H-pyrazol-5-yl)-7-azaspiro[3.5]non-1-en-7-yl)-4-methylbenzo[d]thiazole-6-carboxylic acid] |
| 6.15 | O=C(O)c1cccc(N2CCC3(C=C(c4c(-c5c(Cl)cccc5Cl)noc4C4CC4)C3)CC2)n1 [Example 4, 6-(2-(5-Cyclopropyl-3-(2,6-dichlorophenyl)isoxazol-4-yl)-7-azaspiro[3.5]non-1-en-7-yl) picolinic acid] |
| 7.27 | COc1cc(C(=O)O)nc2ccc(N3CCC4(C=C(c5c(-c6c(Cl)cc(F)cc6Cl)noc5C5CC5)C4)CC3)cc12 [Example 112, 6-(2-(5-Cyclopropyl-3-(2,6-dichloro-4-fluorophenyl)isoxazol-4-yl)-7-azaspiro[3.5]non-1-en-7-yl)-4-methoxyquinoline-2-carboxylic acid] |
| 8.14 | O=C(O)c1cc(C(F)(F)F)cc2nc(N3CCC4(C=C(c5c(-c6c(Cl)cncc6Cl)noc5C5CC5)C4)CC3)ccc12 [Example 60, 2-(2-(5-Cyclopropyl-3-(3,5-dichloropyridin-4-yl)isoxazol-4-yl)-7-azaspiro[3.5]non-1-en-7-yl)-7-(trifluoromethyl)quinoline-5-carboxylic acid] |
| 6.81 | O=C(O)c1cc(F)c2nc(N3CCC4(C=C(c5c(-c6c(F)cccc6F)noc5C5CC5)C4)CC3)sc2c1 [Example 137, 2-(2-(5-Cyclopropyl-3-(2,6-difluorophenyl)isoxazol-4-yl)-7-azaspiro[3.5]non-1-en-7-yl)-4-fluorobenzo[d]thiazole-6-carboxylic acid] |
| 6.82 | O=C(NC1CC1)c1cc(F)c2nc(N3CCC4(C=C(c5c(-c6c(Cl)cncc6Cl)noc5C5CC5)C4)CC3)sc2c1 [Example 201, N-Cyclopropyl-2-(2-(5-cyclopropyl-3-(3,5-dichloropyridin-4-yl)isoxazol-4-yl)-7-azaspiro[3.5]non-1-en-7-yl)-4-fluorobenzo[d]thiazole-6-carboxamide] |
| 6.69 | O=C(O)c1ccc(N2CCC3(C=C(c4c(C(F)F)cnn4-c4ccccc4C(F)(F)F)C3)CC2)nc1 [Example 223] |
| 6.02 | Cc1c(N2CCC3(C=C(c4c(-c5c(Cl)cccc5Cl)noc4C4CC4)C3)CC2)ccc2cc(C(=O)O)cnc12 [Example 132, 7-(2-(5-Cyclopropyl-3-(2,6-dichlorophenyl)isoxazol-4-yl)-7-azaspiro[3.5]non-1-en-7-yl)-8-methylquinoline-3-carboxylic acid] |
| 6.46 | O=C(O)c1cnc(N2CCC3(C=C(c4c(-c5ccccc5C(F)(F)F)noc4C4CC4)C3)CC2)cc1C(F)(F)F [Example 163, 6-(2-(5-Cyclopropyl-3-(2-(trifluoromethyl)phenyl)isoxazol-4-yl)-7-azaspiro[3.5]non-1-en-7-yl)-4-(trifluoromethyl)nicotinic acid] |
| 6.05 | O=C(O)c1ccc(N2CCC3(C=C(c4c(-c5ccccc5Cl)noc4C4CC4)C3)CC2)cc1 [Example 14, 4-(2-(3-(2-Chlorophenyl)-5-cyclopropylisoxazol-4-yl)-7-azaspiro[3.5]non-1-en-7-yl)benzoic acid] |
| 7.89 | O=C(NS(=O)(=O)C1CC1)c1cc(F)c2nc(N3CCC4(C=C(c5c(-c6c(Cl)cccc6Cl)noc5C5CC5)C4)CC3)sc2c1 [Example 179, 2-(2-(5-Cyclopropyl-3-(2,6-dichlorophenyl)isoxazol-4-yl)-7-azaspiro[3.5]non-1-en-7-yl)-N-(cyclopropylsulfonyl)-4-fluorobenzo[d]thiazole-6-carboxamide] |
| 5.93 | Cn1nc(N2CCC3(C=C(c4c(-c5c(Cl)cccc5Cl)noc4C4CC4)C3)CC2)c2ccc(C(=O)O)cc21 [Example 133, 3-(2-(5-Cyclopropyl-3-(2,6-dichlorophenyl)isoxazol-4-yl)-7-azaspiro[3.5]non-1-en-7-yl)-1-methyl-1H-indazole-6-carboxylic acid] |
| 7.06 | O=C(O)c1ccn2nc(N3CCC4(C=C(c5c(-c6ccccc6C(F)(F)F)noc5C5CC5)C4)CC3)ncc12 [Example 135, 2-(2-(5-Cyclopropyl-3-(2-(trifluoromethyl)phenyl)isoxazol-4-yl)-7-azaspiro[3.5]non-1-en-7-yl)pyrrolo[2,1-f][1,2,4]triazine-5-carboxylic acid] |

— US11078198B2 (BRISTOL-MYERS SQUIBB COMPANY, priority 2017, dated 2021)
